# Test results reported in article PMC5369982, “Near infrared fluorescent imaging of choline kinase alpha expression and inhibition in breast tumors” (Oncotarget, 2017).
# Tests used:
# 4175-Luc+ tumors = assay: NIRF optical imaging, JAS239 biodistribution in mice bearing 4175-Luc+ tumors; assay type: in vivo, mouse
# Method: Bioluminescence and NIRF (Ex. 745 nm; Em. 800 nm) images were acquired in an IVIS Spectrum (PerkinElmer). NIRF is measured in Average Radiant Efficiency, photons per second (p/sec) corrected for the area of the region of interest (ROI) and the efficiency of the lamp (μ Watt *cm^−2 / steradian^-1). For bioluminescence imaging, mice were injected i.p. with 150 mg/kg of firefly D-luciferin (Biosynth). Bioluminescent Radiance (p/sec/cm^2/sr) was monitored by time-course imaging until the luminescence intensity plateaued. For NIRF imaging, mice were injected i.v. with 100 μL vehicle or JAS239 (20 nmol). Two vehicle formulations were tested in mice bearing 4175-Luc+ tumors: the first was 0.1% Tween-80 / 50 mM Tris-HCl, and the second was 1% ethanol diluted in 0.9% saline. ROIs with a 20% threshold were created from the bioluminescence image using the LivingImage software (PerkinElmer) program, and this region was used to analyze intratumoral JAS239 accumulation in the NIRF images. Resected organs were placed in 24-well plates and NIRF was measured to quantify JAS239 biodistribution. For diagnostic studies, mice bearing both MCF7-EV and MCF7-CK+ tumors of approximately 200 μL were injected with 20 nmol JAS239 in Tween-80/Tris (8 mice) or in ethanol/saline (7 mice). The cohorts were euthanized after 90 min / 24h respectively, and tumor-bearing flanks were surgically exposed. NIRF from the tumor-bearing fat pads was subtracted from background muscle signal and the Average Radiant Efficiency measured.
# [1] = test system: MCF7-EV and MCF7-CK+ tumors; assay: NIRF optical imaging of JAS239 in mice bearing MCF7-EV and MCF7-CK+ tumors; assay type: in vivo, mouse
# Method: All animal studies were approved by the Institutional Animal Care and Use Committee of the University of Pennsylvania. Six week old female athymic nude Foxn1^nu/nu mice (National Cancer Institute) were housed in a temperature-controlled environment with 12 h light/dark cycle. Anesthesia was induced using 2% isoflurane in oxygen for all experiments. For MCF7 tumors, mice were supplemented with 60-day release 0.36 mg 17β-estradiol tablets (Innovative Research of America) using a trochar in the nape of the neck. After 1 week, 4 × 10^6 cells in Matrigel (BD Biosciences) were inoculated into the left (CK+) and contralateral (EV) mammary fat pads. Subcutaneous xenografts, including those analyzed in MRI/MRS studies, were grown on the shoulder to allow for cloaking of the kidneys during optical imaging studies. Tumor growth was determined via caliper measurement of three orthogonal dimensions and volume calculated as length * width * height * π/6.
# Bioluminescence and NIRF (Ex. 745 nm; Em. 800 nm) images were acquired in an IVIS Spectrum (PerkinElmer). NIRF is measured in Average Radiant Efficiency, photons per second (p/sec) corrected for the area of the region of interest (ROI) and the efficiency of the lamp (μ Watt *cm^−2 / steradian^-1). […] Bioluminescent Radiance (p/sec/cm^2/sr) was monitored by time-course imaging until the luminescence intensity plateaued. […]
# ChoKα = ChoKα (Homo sapiens, UniProt P35790); assay: Confocal microscopy colocalization of JAS239 with anti-ChoKα antibody in fixed MDA-MB-231 cells; assay type: cell-based; parameters: endogenous in cells; host or cells: MDA-MB-231; settings: cells pre-treated with ChoKα antibody
# Method: MDA-MB-231 cells plated on sterile glass coverslips were fixed in 4% paraformaldehyde, permeabilized in 0.2% Triton X-100, and blocked in 1% BSA. Staining with 0 or 200 μM JAS239 was performed 30 min prior or 1 h after application of rabbit anti-human ChoKα antibody (ab38290; Abcam, 1:1000 dilution). Coverslips were then stained with goat anti-rabbit antibody conjugated to Texas Red (Vector Laboratories; TI-1000, 1:500), dehydrated, and mounted with VectaShield (Vector Laboratories). Confocal micrographs were acquired on a Zeiss LSM 510META NLC using excitation (Ex.) 543 nm and emission (Em.) 565–615 nm for Texas Red and Ex. 633 nm and Em. > 650 nm for JAS239. The Coloc 2 FIJI software plug-in was used to assess colocalization of the anti-ChoKα antibody with JAS239 by calculating Pearson's Correlation Coefficients and Manders’ Colocalization Coefficients for at least 3 separate ROIs. […]
# strongly correlated with ChoKα, unless fixed cells are pre-incubated with ChoKα antibody (Ab). (B) Manders’ Colocalization Coefficients calculated for the Texas-Red channel confirm that the majority of ChoKα is bound by JAS239 when JAS239 is present. (C) Manders’ Colocalization Coefficients calculated for the JAS239 channel indicate that the majority of JAS239 that is present intracellularly is co-distributed with ChoKα. Values represent ± SEM for 3 separate fields of view. […]
# [2] = test system: MDA-MB-231 tumor xenografts; parameters: method as in PMID 16397258; settings: 4 mg/kg; cited from earlier work
# Sequence of ChoKα (P35790 whole entry): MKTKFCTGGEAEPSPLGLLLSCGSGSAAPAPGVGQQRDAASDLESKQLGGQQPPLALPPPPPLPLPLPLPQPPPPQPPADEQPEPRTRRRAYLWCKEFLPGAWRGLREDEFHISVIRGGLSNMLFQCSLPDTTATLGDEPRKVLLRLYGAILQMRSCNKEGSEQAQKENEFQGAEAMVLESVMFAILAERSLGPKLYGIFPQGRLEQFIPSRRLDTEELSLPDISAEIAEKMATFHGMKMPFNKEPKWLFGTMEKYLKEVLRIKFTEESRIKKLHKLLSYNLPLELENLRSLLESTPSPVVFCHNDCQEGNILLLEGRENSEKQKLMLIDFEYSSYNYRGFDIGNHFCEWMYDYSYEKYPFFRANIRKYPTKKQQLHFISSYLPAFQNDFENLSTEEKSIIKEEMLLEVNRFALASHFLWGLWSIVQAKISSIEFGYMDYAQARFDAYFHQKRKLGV
Compound,Initial hepatic clearance time (4175-Luc+ tumors; 20 nmol i.v. in Tween-80/Tris buffer),"Tumor NIRF emission at 800 nm vs. control (4175-Luc+ tumors; 20 nmol i.v. in Tween-80/Tris buffer, 90 min)","Time of maximum NIRF contrast between tumor and background (4175-Luc+ tumors; 20 nmol i.v. in Tween-80/Tris buffer, post-injection) [min]","Time of highest tumor signal to noise (4175-Luc+ tumors; 20 nmol i.v. in ethanol/saline vehicle, subcutaneous tumors) [h]","Tumor-to-muscle ratio ex vivo (4175-Luc+ tumors; ethanol/saline vehicle, 24 h post-injection)","Hepatic signal compared to the Tween-80/Tris vehicle (4175-Luc+ tumors; ethanol/saline vehicle, 24 h post-injection, resected organs)",Tumor/normal tissue fluorescence ratio [1],JAS239 retention after ChoKα antibody pre-treatment (ChoKα),PC levels in tumor xenografts [2]
CC1(C)C(=C/C=C/C=C/C=C/C2=[N+](CCO)c3ccccc3C2(C)C)N(CCO)c2ccccc21 [JAS239],approximately 75 min,an order of magnitude stronger,90,24,nearly two-fold,dropped nearly one order of magnitude,2.8 ± 0.2,marked reduction in JAS239 retention,
MN58b [reference compound],,,,,,,,,lower PC levels
